Assay results taken from PubChem BioAssay AID1963831 (Molecular Pharmacology Branch, DTP, NCI, 2024).

Test system: 889142-216-R-J1-PDC complex spheroid viability
Assay: Anticancer human tumor 889142-216-R-J1-PDC patient-derived bladder carcinoma cell line growth inhibition [POLQ]
Conditions: for IC50: curve of first compound; for viability, T/C: stronger effect = lower value
How it was run: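 Complex spheroid viability model combining PDC tumour cells with endothelial (HUVEC) and MSC stromal cells. Novobiocin, ART-558 or RP6685 were tested singly and in combination with standard and investigational anticancer drugs. Each was titrated in half-log steps from near clinical Cmax, or from 10 microM where Cmax was unknown.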

[1] = second compound 0.0316 µM, first compound 0.0316 µM
[2] = second compound 0.0316 µM, first compound 0.1 µM
[3] = second compound 0.1 µM, first compound 0.0316 µM
[4] = second compound 0.1 µM, first compound 0.1 µM
[5] = second compound 0.316 µM, first compound 0.0316 µM
[6] = second compound 0.316 µM, first compound 0.1 µM
[7] = second compound 1 µM, first compound 0.0316 µM
[8] = second compound 1 µM, first compound 0.1 µM
[9] = second compound 3.16 µM, first compound 0.0316 µM
[10] = second compound 3.16 µM, first compound 0.1 µM
[11] = second compound 10 µM, first compound 0.0316 µM
[12] = second compound 10 µM, first compound 0.1 µM
[13] = second compound 0.0316 µM, first compound 0.316 µM
[14] = second compound 0.0316 µM, first compound 1 µM
[15] = second compound 0.0316 µM, first compound 3.16 µM
[16] = second compound 0.0316 µM, first compound 10 µM
[17] = second compound 0.1 µM, first compound 0.316 µM
[18] = second compound 0.1 µM, first compound 1 µM
[19] = second compound 0.1 µM, first compound 3.16 µM
[20] = second compound 0.1 µM, first compound 10 µM
[21] = second compound 0.316 µM, first compound 0.316 µM
[22] = second compound 0.316 µM, first compound 1 µM
[23] = second compound 0.316 µM, first compound 3.16 µM
[24] = second compound 0.316 µM, first compound 10 µM
[25] = second compound 1 µM, first compound 0.316 µM
[26] = second compound 1 µM, first compound 1 µM
[27] = second compound 1 µM, first compound 3.16 µM
[28] = second compound 1 µM, first compound 10 µM
[29] = second compound 3.16 µM, first compound 0.316 µM
[30] = second compound 3.16 µM, first compound 1 µM
[31] = second compound 3.16 µM, first compound 3.16 µM
[32] = second compound 3.16 µM, first compound 10 µM
[33] = second compound 10 µM, first compound 0.316 µM
[34] = second compound 10 µM, first compound 1 µM
[35] = second compound 10 µM, first compound 3.16 µM
[36] = second compound 10 µM, first compound 10 µM
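Also: spheroids exposed to compounds for seven days.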
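For viability, T/C in this document: 100% = DMSO vehicle control viability.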

`Cn1ncnc1[C@H]1c2n[nH]c(=O)c3cc(F)cc(c23)N[C@@H]1c1ccc(F)cc1` + Nc1ccc(C#CCN(C(=O)Cc2ncc(C(F)(F)F)cc2C(F)(F)F)c2ccc(F)cc2)nn1 was tested, and the IC50 (second compound 0.0316 µM) was > 100 nM, the IC50 (second compound 0.1 µM) was > 100 nM and the IC50 (second compound 0.316 µM) was > 100 nM. For the same molecule, the IC50 (second compound 1 µM) was > 100 nM, the IC50 (second compound 3.16 µM) was > 100 nM and the IC50 (second compound 10 µM) was > 100 nM. The viability, T/C (second compound 0.0316 µM, first compound 0.000316 µM) was 96.8%, the viability, T/C (second compound 0.0316 µM, first compound 0.001 µM) was 121% and the viability, T/C (second compound 0.0316 µM, first compound 0.00316 µM) was 110%. For the same molecule, the viability, T/C (second compound 0.0316 µM, first compound 0.01 µM) was 85.7%, the viability, T/C [1] was 90.3% and the viability, T/C [2] was 87.4%. It also gave a viability, T/C (second compound 0.1 µM, first compound 0.000316 µM) of 176%, a viability, T/C (second compound 0.1 µM, first compound 0.001 µM) of 83.6% and a viability, T/C (second compound 0.1 µM, first compound 0.00316 µM) of 92%. The viability, T/C (second compound 0.1 µM, first compound 0.01 µM) was 91.4%, the viability, T/C [3] was 105% and the viability, T/C [4] was 101%. The viability, T/C (second compound 0.316 µM, first compound 0.000316 µM) was 108%, the viability, T/C (second compound 0.316 µM, first compound 0.001 µM) was 102% and the viability, T/C (second compound 0.316 µM, first compound 0.00316 µM) was 91.3%. The viability, T/C (second compound 0.316 µM, first compound 0.01 µM) was 79.6%, the viability, T/C [5] was 97.2% and the viability, T/C [6] was 73.2%. It also gave a viability, T/C (second compound 1 µM, first compound 0.000316 µM) of 127%, a viability, T/C (second compound 1 µM, first compound 0.001 µM) of 81.1% and a viability, T/C (second compound 1 µM, first compound 0.00316 µM) of 124%. The viability, T/C (second compound 1 µM, first compound 0.01 µM) was 95.9%, the viability, T/C [7] was 67.4% and the viability, T/C [8] was 72.2%. The viability, T/C (second compound 3.16 µM, first compound 0.000316 µM) was 110%, the viability, T/C (second compound 3.16 µM, first compound 0.001 µM) was 124% and the viability, T/C (second compound 3.16 µM, first compound 0.00316 µM) was 135%. The viability, T/C (second compound 3.16 µM, first compound 0.01 µM) was 77.1%, the viability, T/C [9] was 92.3% and the viability, T/C [10] was 87.2%. The viability, T/C (second compound 10 µM, first compound 0.000316 µM) was 122%, the viability, T/C (second compound 10 µM, first compound 0.001 µM) was 93.5% and the viability, T/C (second compound 10 µM, first compound 0.00316 µM) was 113%. It also gave a viability, T/C (second compound 10 µM, first compound 0.01 µM) of 90.2%, a viability, T/C [11] of 115% and a viability, T/C [12] of 80.4%.

`COc1cc2cc(C(=O)CCC(=O)O)sc2cc1OC` + Nc1ccc(C#CCN(C(=O)Cc2ncc(C(F)(F)F)cc2C(F)(F)F)c2ccc(F)cc2)nn1 was tested, and the IC50 (second compound 0.0316 µM) was > 10000 nM, the IC50 (second compound 0.1 µM) was > 10000 nM and the IC50 (second compound 0.316 µM) was > 10000 nM. For the same molecule, the IC50 (second compound 1 µM) was > 10000 nM, the IC50 (second compound 3.16 µM) was > 10000 nM and the IC50 (second compound 10 µM) was > 10000 nM. The viability, T/C [1] was 88.3%, the viability, T/C [2] was 108% and the viability, T/C [13] was 96.6%. For the same molecule, the viability, T/C [14] was 92.9%, the viability, T/C [15] was 108% and the viability, T/C [16] was 61.9%. For the same molecule, the viability, T/C [3] was 108%, the viability, T/C [4] was 89% and the viability, T/C [17] was 82.7%. It also gave a viability, T/C [18] of 115%, a viability, T/C [19] of 81.9% and a viability, T/C [20] of 79.2%. The viability, T/C [5] was 91.7%, the viability, T/C [6] was 86.5% and the viability, T/C [21] was 94%. It also gave a viability, T/C [22] of 117%, a viability, T/C [23] of 78.2% and a viability, T/C [24] of 78.5%. It also gave a viability, T/C [7] of 82.5%, a viability, T/C [8] of 96.3% and a viability, T/C [25] of 93%. For the same molecule, the viability, T/C [26] was 89.5%, the viability, T/C [27] was 93.3% and the viability, T/C [28] was 68.2%. It also gave a viability, T/C [9] of 108%, a viability, T/C [10] of 83.6% and a viability, T/C [29] of 91.1%. It also gave a viability, T/C [30] of 71.7%, a viability, T/C [31] of 87.2% and a viability, T/C [32] of 76.8%. For the same molecule, the viability, T/C [11] was 90.5%, the viability, T/C [12] was 79% and the viability, T/C [33] was 93.7%. For the same molecule, the viability, T/C [34] was 101%, the viability, T/C [35] was 100% and the viability, T/C [36] was 89.4%.

Molecule `CC1COCCN1c1cc(-c2ccnn2C)c2ccnc(-c3ccn[nH]3)c2n1` (stereo unspecified) + COC1C(OC(N)=O)C(O)C(Oc2ccc3c(O)c(NC(=O)c4ccc(O)c(CC=C(C)C)c4)c(=O)oc3c2C)OC1(C)C has an IC50 (second compound 0.0316 µM) of 213 nM, an IC50 (second compound 0.1 µM) of 162 nM and an IC50 (second compound 0.316 µM) of 169 nM. The IC50 (second compound 1 µM) was 293 nM, the IC50 (second compound 3.16 µM) was 337 nM and the IC50 (second compound 10 µM) was 287 nM. The viability, T/C [1] was 97.8%, the viability, T/C [2] was 56.2% and the viability, T/C [13] was 46.4%. The viability, T/C [14] was 45%, the viability, T/C [15] was 31.5% and the viability, T/C [16] was 30%. It also gave a viability, T/C [3] of 79%, a viability, T/C [4] of 53.3% and a viability, T/C [17] of 40.4%. It also gave a viability, T/C [18] of 41.7%, a viability, T/C [19] of 34.1% and a viability, T/C [20] of 25.9%. The viability, T/C [5] was 90.5%, the viability, T/C [6] was 55.5% and the viability, T/C [21] was 39.6%. The viability, T/C [22] was 45.2%, the viability, T/C [23] was 38.2% and the viability, T/C [24] was 28.6%. For the same molecule, the viability, T/C [7] was 77.2%, the viability, T/C [8] was 58.6% and the viability, T/C [25] was 48%. It also gave a viability, T/C [26] of 40.9%, a viability, T/C [27] of 36.2% and a viability, T/C [28] of 25.9%. For the same molecule, the viability, T/C [9] was 71.5%, the viability, T/C [10] was 59.5% and the viability, T/C [29] was 48.8%. The viability, T/C [30] was 42.8%, the viability, T/C [31] was 35.3% and the viability, T/C [32] was 26.4%. The viability, T/C [11] was 79%, the viability, T/C [12] was 55.8% and the viability, T/C [33] was 49.7%. The viability, T/C [34] was 43.6%, the viability, T/C [35] was 34.2% and the viability, T/C [36] was 27.5%.
